From US20200085047A1, “Use of an Acyclic Picolinamide Compound as a Fungicide for Control of Phytopathogenic Fungi in Vegetables” (Dow AgroSciences LLC, priority 2017, published 2020)

How the values were obtained:
Format in all cases: in vivo
Alternaria solani = assay: Field assessment of Alternaria solani (ALTESO) on tomato, trial 1 (inoculated); conditions: for Percent disease control on tomato fruits (AUDPC), Trial 1, 5% EC: 5% EC + Agnique BP420, fruits; for Percent disease control on tomato leaves (AUDPC), Trial 1, 5% EC: 5% EC + Agnique BP420, leaves; for Percent disease control on tomato fruits (AUDPC), Trial 1, 10% SC: 10% SC + Agnique BP420, fruits; for Percent disease control on tomato leaves (AUDPC), Trial 1, 10% SC: 10% SC + Agnique BP420, leaves
Method: Field Assessment of Alternaria solani (ALTESO) on Tomato:
Assessment of compound I of ALTESO on tomato was performed in two separate field trials. In the first trial, a fungicidal treatment containing Compound I, applied in both a 5% EC and 10% SC formulation and tank mixed with an adjuvant (Agnique BP420, 50% w/w at 0.3% v/v), was sprayed on tomato plants (LYPES) at approximately 60-70 cm in height at rates of 100 and 200 grams of active ingredient per hectare (g ai/ha). The trial was based on five foliar applications at 7 day intervals with inoculation with the early blight pathogen 2 days after the first application. The treatment was part of an experimental trial designed as a randomized complete block with four replications and a plot of approximately 1.5×4 m. Compound I was applied at water volume of 1000 L/ha with an AZO backpack sprayer using compressed air.
Disease severity was recorded as percent diseased area on a random selection of 20 leaves and 20 fruits per plot. Percent control was assessed with 6 evaluations made between 0-35 days after the first application, DAA1. Area under the disease progress curve (AUDPC) was calculated for each plot using the sets of recorded severity data. Relative AUDPC (% control based on AUDPC) was calculated as percent of the nontreated control.

Erysiphe cichoracearum = assay: Field assessment of Erysiphe cichoracearum (ERYSCI) on cucumber, 2 day protectant; conditions: 5% EC + Trycol
Method: Field Assessment of Erysiphe Cichoracearum (ERYSCI) on Cucumber:
Assessment of compound I of ERYSCI on cucumbers, in both protectant and curative fashion, was performed in two separate field trials. For the two day protectant test (2DP), a fungicidal treatment containing a 5% EC formulation of compound I plus an adjuvant (Trycol, 50% w/w at 0.2% v/v), was sprayed on cucumber plants (CUMSA) twice, the first application at the fruiting stage 41 days after planting, with the following application after 7 days. Formulations of compound I were applied at rates of 50, 100, and 150 grams of active ingredient per hectare (g ai/ha). The experimental plots were inoculated with the powdery mildew pathogen 2 days after the first application. The treatment was part of an experimental trial designed as a randomized complete block with four replications and a plot of approximately 2×1 m, with formulations of compound I being applied at water volume of 1200 L/ha based on seedling sizes.
Disease severity was assessed as percent diseased area of cucumber foliage per plant (6 plants per plot randomly). Cucumber powdery mildew infection was assessed three times, 7 days after application A (DAAA), and 7 and 14 DAAB. Area under the disease progress curve (AUDPC) was calculated for each plot using the sets of recorded visual infection data. Relative AUDPC (% control based on AUDPC) was calculated as percent of the nontreated control.

Colletotrichum capsici = assay: Field assessment of Colletotrichum capsici (COLLCA) on hot peppers, 2 day protectant; conditions: 5% EC + Trycol, hot pepper
Method: Field Assessment of Colletotrichum capsici (COLLCA) on Hot Peppers:
Assessment of compound I of COLLCA on hot peppers, in both protectant and curative fashion, was performed in two separate field trials. For the 2 day protectant test, a fungicidal treatment containing a 5% EC formulation of compound I plus an adjuvant (Trycol, 50% w/w at 0.2% v/v), was sprayed on hot pepper plants (CPSAN) three times, the first application at the flowering and fruiting stage 43 days after planting, with the following applications in 7 day intervals. Formulations of compound I were applied at rates of 50, 100, and 150 grams of active ingredient per hectare (g ai/ha). The experimental plots were inoculated with the anthracnose pathogen 2 days after the first application. The treatment was part of an experimental trial designed as a randomized complete block with four replications and a plot of approximately 2×1 m, with formulations of compound I being applied at water volume of 1000 L/ha.
Disease severity was assessed as the percent fruit area diseased per plant (6 plants per plot randomly). Anthracnose infection was assessed four times, 7 days after application A (DAAA), 7 DAAB, plus 7 and 14 DAAC. Area under the disease progress curve (AUDPC) was calculated for each plot using the sets of recorded visual infection data. Relative AUDPC (% control based on AUDPC) was calculated as percent of the nontreated control.

[1] = tested on: Stagonosporopsis cucurbitacearum; assay: Field assessment of Stagonosporopsis cucurbitacearum (DIDYBR) on watermelon; conditions: 10% SC; for Percent control based on AUDPC, DIDYBR, adjuvant II: Agnique BP420 (50% w/w at 0.3% v/v)
Source text: Field Assessment of Stagonosporopsis Cucurbitacearum (DIDYBR) on Watermelon:
A 10% SC formulation of compound I was tanked mixed with four different adjuvants: Agnique BP420 (50% w/w at 0.3% v/v); Trycol (50% w/w at 0.1% v/v); Ethomeen T18H (50% w/w at 0.2% v/v); and Phase II (50% w/w at 0.2% v/v). A fungicidal treatment containing formulations of compound I, either alone or with adjuvants, was sprayed on watermelon plants four times, the first application approximately 2 months after planting, with the following three applications in 7-10 day intervals. Formulations of compound I were applied at rates of 50, 100, 150 and 200 grams of active ingredient per hectare (g ai/ha). The experimental plots were inoculated with the gummy stem blight pathogen 2 days after the first application. The treatment was part of an experimental trial designed as a randomized complete block with four replications and a plot of approximately 2.5×1.4 m. Formulations of compound I were applied at water volume of 675 L/ha.
Disease severity was recorded as the length of stem lesion and as percent area diseased foliage (3 random plants per plot). Watermelon gummy stem blight infection was assessed twice, the first at 6 days after the first application (6 DAAA), followed by 19 DAAD. Area under the disease progress curve (AUDPC) was calculated for each plot using the sets of recorded severity data. Relative AUDPC (% control based on AUDPC) was calculated as percent of the nontreated control.

COc1ccnc(C(=O)N[C@@H](C)C(=O)O[C@@H](C)C(c2ccc(F)cc2)c2ccc(F)cc2)c1OC(C)=O [Compound I, (S)-1,1-bis(4-fluorophenyl)propan-2-yl (3-acetoxy-4-methoxypicolinoyl)-L-alaninate]
Percent disease control on tomato fruits (AUDPC), Trial 1, 5% EC (Alternaria solani; 100 g ai/ha): A (76-100)
Percent disease control on tomato leaves (AUDPC), Trial 1, 5% EC (Alternaria solani; 100 g ai/ha): A (76-100)
Percent disease control on tomato fruits (AUDPC), Trial 1, 10% SC (Alternaria solani; 100 g ai/ha): A (76-100)
Percent disease control on tomato leaves (AUDPC), Trial 1, 10% SC (Alternaria solani; 100 g ai/ha): A (76-100)
Percent disease control on tomato fruits (AUDPC), Trial 1, 5% EC (Alternaria solani; 200 g ai/ha): A (76-100)
Percent disease control on tomato leaves (AUDPC), Trial 1, 5% EC (Alternaria solani; 200 g ai/ha): A (76-100)
Percent disease control on tomato fruits (AUDPC), Trial 1, 10% SC (Alternaria solani; 200 g ai/ha): A (76-100)
Percent disease control on tomato leaves (AUDPC), Trial 1, 10% SC (Alternaria solani; 200 g ai/ha): A (76-100)
Percent control based on AUDPC, ERYSCI 2 DP (Erysiphe cichoracearum; 50 g ai/ha): A (76-100)
Percent control based on AUDPC, ERYSCI 2 DP (Erysiphe cichoracearum; 100 g ai/ha): A (76-100)
Percent control based on AUDPC, ERYSCI 2 DP (Erysiphe cichoracearum; 150 g ai/ha): A (76-100)
Percent control based on AUDPC, COLLCA 2 DP (Colletotrichum capsici; 50 g ai/ha): A (76-100)
Percent control based on AUDPC, COLLCA 2 DP (Colletotrichum capsici; 100 g ai/ha): A (76-100)
Percent control based on AUDPC, COLLCA 2 DP (Colletotrichum capsici; 150 g ai/ha): A (76-100)
Percent control based on AUDPC, DIDYBR, adjuvant II ([1]; 50 g ai/ha): A (76-100)
Percent control based on AUDPC, DIDYBR, adjuvant II ([1]; 100 g ai/ha): A (76-100)
Percent control based on AUDPC, DIDYBR, adjuvant IV ([1]; 100 g ai/ha, Ethomeen T18H (50% w/w at 0.2% v/v)): B (51-75)
Percent control based on AUDPC, DIDYBR, adjuvant V ([1]; 100 g ai/ha, Phase II (50% w/w at 0.2% v/v)): B (51-75)
Percent control based on AUDPC, DIDYBR, adjuvant III ([1]; 100 g ai/ha, Trycol (50% w/w at 0.1% v/v)): B (51-75)
Percent control based on AUDPC, DIDYBR, adjuvant I ([1]; 100 g ai/ha, no adjuvant): B (51-75)
Percent control based on AUDPC, DIDYBR, adjuvant II ([1]; 150 g ai/ha): A (76-100)
Percent control based on AUDPC, DIDYBR, adjuvant II ([1]; 200 g ai/ha): A (76-100)
